For 5 compounds, CATDS results are on record in article PMC11062922 (Nature Chemical Biology, 2023).

One test deals with T1, CDK7 (Homo sapiens, UniProt P50613).
T1 construct: endogenous in cells
Kind of test: Kinobeads competition binding: CDK7. Conditions: target CDK7.

For the next test, the target named is T2, FER (Homo sapiens, UniProt P16591).
T2 construct: endogenous in cells
The experiment in a line: Kinobeads competition binding: FER. Conditions: target FER. An excerpt:
Supplement 41589_2023_1459_MOESM4_ESM.xlsx, sheet "CATDS matrix" | column: FER

The target in the next test is T3, AKT1 (Homo sapiens, UniProt P31749).
T3 construct: endogenous in cells
Kind of test: Kinobeads competition binding: AKT1. As to conditions: target AKT1. An excerpt:
Supplement 41589_2023_1459_MOESM4_ESM.xlsx, sheet "CATDS matrix" | column: AKT1

In a further test the target is T4, MAPKAPK2 (Homo sapiens, UniProt P49137).
T4 construct: endogenous in cells
The experiment in a line: Kinobeads competition binding: MAPKAPK2. Conditions: target MAPKAPK2.

For the next test, the system named is CDK9. The experiment in a line: Kinobeads competition binding: CDK9. Also noted: species or system human. As to conditions: target CDK9.
The next test relates to MAPK9. The experiment in a line: Kinobeads competition binding: MAPK9. Also noted: species or system human. Conditions: target MAPK9.
The test system of a further test is ERCC2. Kind of test: Kinobeads competition binding: ERCC2. On the set-up: species or system human. As to conditions: target ERCC2.
A further test deals with T5, CDK4 (Homo sapiens, UniProt P11802).
T5 construct: endogenous in cells
The experiment in a line: Kinobeads competition binding: CDK4. Conditions: target CDK4. The source says:
Supplement 41589_2023_1459_MOESM4_ESM.xlsx, sheet "CATDS matrix" | column: CDK4

In a further test the target is T6, PIK3CG (Homo sapiens, UniProt P48736).
T6 construct: endogenous in cells
The experiment in a line: Kinobeads competition binding: PIK3CG.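 Also: selectivity score: engagement of this protein divided by summed engagement of all targets.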 As to conditions: target PIK3CG. The source says:
Supplement 41589_2023_1459_MOESM4_ESM.xlsx, sheet "CATDS matrix" | column: PIK3CG

A further test has as its system CDK16. The experiment in a line: Kinobeads competition binding: CDK16. On the set-up: species or system human. As to conditions: target CDK16.
The target in a further test is T7, CAMK2D (Homo sapiens, UniProt Q13557).
T7 construct: endogenous in cells
The experiment in a line: Kinobeads competition binding: CAMK2D.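 Also: selectivity score: engagement of this protein divided by summed engagement of all targets.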 As to conditions: target CAMK2D. The source says: Supplement 41589_2023_1459_MOESM4_ESM.xlsx, sheet "CATDS matrix" | column: CAMK2D

The next test addresses T8, EPHA4 (Homo sapiens, UniProt P54764).
T8 construct: endogenous in cells
Kind of test: Kinobeads competition binding: EPHA4. Conditions: target EPHA4. The source says: Supplement 41589_2023_1459_MOESM4_ESM.xlsx, sheet "CATDS matrix" | column: EPHA4

The next test concerns the target T9, GRK6 (Homo sapiens, UniProt P43250).
T9 construct: endogenous in cells
The experiment in a line: Kinobeads two-dose competition binding: GRK6. As to conditions: target GRK6.

The target in another test is T10, PIK3CA (Homo sapiens, UniProt P42336).
T10 construct: a mixture of lysates from five cancer cell lines; endogenous in cells
The experiment in a line: Kinobeads competition binding: PIK3CA.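 Also: share of all-target engagement taken by this protein at its own Kdapp concentration.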 Conditions: target PIK3CA. The source says: Supplement 41589_2023_1459_MOESM4_ESM.xlsx, sheet "CATDS matrix" | column: PIK3CA

In another test the test system is LYN. Kind of test: Kinobeads competition binding: LYN. On the set-up: species or system human. As to conditions: target LYN.
In another test the target is T11, BUB1 (Homo sapiens, UniProt O43683).
T11 construct: endogenous in cells
The experiment in a line: Kinobeads competition binding: BUB1. As to conditions: target BUB1.

The test system of a further test is CSNK1A1. The experiment in a line: Kinobeads competition binding: CSNK1A1. Also noted: species or system human. As to conditions: target CSNK1A1.
The next test concerns the target T12, FRK (Homo sapiens, UniProt P42685).
T12 construct: endogenous in cells
The experiment in a line: Kinobeads competition binding: FRK. As to conditions: target FRK. An excerpt:
Supplement 41589_2023_1459_MOESM4_ESM.xlsx, sheet "CATDS matrix" | column: FRK

For the next test, the system named is CLK2. The experiment in a line: Kinobeads competition binding: CLK2. Also noted: species or system human. As to conditions: target CLK2.
The next test deals with ACOX3. Kind of test: Kinobeads competition binding: ACOX3.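 Also: share of all-target engagement taken by this protein at its own Kdapp concentration.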 On the set-up: species or system human. As to conditions: target ACOX3.
For a further test, the target named is T13, ACAD11 (Homo sapiens, UniProt Q709F0).
T13 construct: endogenous in cells
T13 sequence (Q709F0 1-780): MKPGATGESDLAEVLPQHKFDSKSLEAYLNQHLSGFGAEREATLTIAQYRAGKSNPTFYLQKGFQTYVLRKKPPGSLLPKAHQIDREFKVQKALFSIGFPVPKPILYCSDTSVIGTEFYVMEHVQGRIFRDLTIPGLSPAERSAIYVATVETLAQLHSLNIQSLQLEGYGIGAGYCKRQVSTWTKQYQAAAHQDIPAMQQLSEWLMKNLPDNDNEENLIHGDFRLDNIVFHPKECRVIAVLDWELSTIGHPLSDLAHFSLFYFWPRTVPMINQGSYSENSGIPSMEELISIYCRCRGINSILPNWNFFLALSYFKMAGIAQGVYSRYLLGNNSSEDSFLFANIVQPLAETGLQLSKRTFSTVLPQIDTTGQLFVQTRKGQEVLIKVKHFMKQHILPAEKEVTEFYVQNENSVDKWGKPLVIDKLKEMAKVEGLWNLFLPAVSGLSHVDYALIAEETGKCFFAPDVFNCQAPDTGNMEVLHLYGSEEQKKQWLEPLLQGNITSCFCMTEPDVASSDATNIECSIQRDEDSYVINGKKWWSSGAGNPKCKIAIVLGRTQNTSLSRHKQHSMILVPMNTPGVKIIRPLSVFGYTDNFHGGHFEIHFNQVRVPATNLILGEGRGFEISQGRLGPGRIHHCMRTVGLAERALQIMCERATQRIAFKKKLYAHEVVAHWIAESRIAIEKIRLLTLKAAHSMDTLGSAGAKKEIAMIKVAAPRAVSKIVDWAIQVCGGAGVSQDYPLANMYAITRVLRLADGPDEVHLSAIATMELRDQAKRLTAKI
The experiment in a line: Kinobeads competition binding: ACAD11. As to conditions: target ACAD11. The source says:
Supplement 41589_2023_1459_MOESM4_ESM.xlsx, sheet "CATDS matrix" | column: ACAD11

The next test deals with CSNK1G1. Kind of test: Kinobeads competition binding: CSNK1G1.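 Also: share of total target engagement due to this protein at one drug concentration.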 Conditions: target CSNK1G1. On the set-up: species or system human.
A further test has as its system EIF2AK1. The experiment in a line: Kinobeads competition binding: EIF2AK1.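 Also: share of total target engagement due to this protein at one drug concentration.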 Also noted: species or system human. Conditions: target EIF2AK1.
The next test has as its system HSP90AA1. The experiment in a line: Kinobeads competition binding: HSP90AA1.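 Also: share of total target engagement due to this protein at one drug concentration.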 Also noted: species or system human. Conditions: target HSP90AA1.
In the next test the target is T14, NQO1 (Homo sapiens, UniProt P15559).
T14 construct: endogenous in cells
Kind of test: Kinobeads competition binding: NQO1. As to conditions: target NQO1. The source says:
Supplement 41589_2023_1459_MOESM4_ESM.xlsx, sheet "CATDS matrix" | column: NQO1

Each structure is given as a SMILES string.

Turning to `Nc1ncnc2[nH]c(-c3ccccc3)nc12` [AH5015_KCGS], the CATDS was determined as 0.1088 on CDK7; 0.03222 at FER; 0 at AKT1; 0 on MAPKAPK2; 0 in the test on CDK9; 0 with MAPK9. Further, the CATDS was 0.1122 in the test with ERCC2; 0 on CDK4; 0 on PIK3CG; 0 with CDK16; 0 on CAMK2D; 0 at EPHA4. The CATDS at GRK6, on PIK3CA, with LYN, at BUB1, in the test with CSNK1A1 and on FRK was 0 throughout. Moreover, the CATDS with CLK2, with ACOX3, on ACAD11, in the test with CSNK1G1, with EIF2AK1 and with HSP90AA1 was 0 each time. This compound came in with a CATDS on NQO1 of 0.
For `CCc1cc2c(cc1N1CCC(N3CCOCC3)CC1)C(C)(C)c1[nH]c3cc(C#N)ccc3c1C2=O` [Alectinib], the CATDS at CDK7, at FER, at AKT1, at MAPKAPK2, in the test with CDK9 and with MAPK9 was 0 throughout. Moreover, the CATDS in the test with ERCC2, on CDK4, on PIK3CG, in the test with CDK16, at CAMK2D and on EPHA4 was 0 throughout. Also, the CATDS on GRK6, at PIK3CA, in the test on LYN, on BUB1, in the test on CSNK1A1 and at FRK was 0 each time. In addition, the CATDS in the test on CLK2, in the test on ACOX3, on ACAD11, in the test with CSNK1G1, in the test on EIF2AK1 and in the test with HSP90AA1 was 0 in each case. For the same compound, the CATDS at NQO1 is listed as 0.
For `N#CC1(c2ccc(NC(=O)c3cccnc3NCc3ccncc3)cc2)CCCC1` [Apatinib], the CATDS on CDK7, on FER, at AKT1, on MAPKAPK2, with CDK9 and with MAPK9 was 0 each time. Further, the CATDS in the test with ERCC2, at CDK4, on PIK3CG, in the test on CDK16, at CAMK2D and at EPHA4 was 0 each time. In addition, the CATDS on GRK6, on PIK3CA, with LYN, at BUB1, with CSNK1A1 and at FRK was 0 each time. Also, the CATDS with CLK2, in the test with ACOX3, at ACAD11, in the test with CSNK1G1, with EIF2AK1 and in the test on HSP90AA1 was 0 in each case. The compound also showed a CATDS at NQO1 of 0.
Regarding `CCN1CCN(Cc2ccc(Nc3ncc(F)c(-c4cc(F)c5nc(C)n(C(C)C)c5c4)n3)nc2)CC1` [Abemaciclib], the CATDS at CDK7 stood at 0; on FER, 0; at AKT1 it was 0; on MAPKAPK2, 0; in the test with CDK9, 0.02947; in the test on MAPK9, 0. The CATDS with ERCC2 is 0; on CDK4, 0; at PIK3CG, 0; in the test on CDK16, 0.02651; on CAMK2D, 0.08654; on EPHA4, 0. In addition, the CATDS on GRK6, on PIK3CA, in the test with LYN, on BUB1, in the test with CSNK1A1 and on FRK was 0 in each case. Besides, the CATDS with CLK2, in the test on ACOX3, on ACAD11, with CSNK1G1, with EIF2AK1 and with HSP90AA1 was 0 each time. Besides, at NQO1, the CATDS is on record as 0.
In the case of `CN(C)C/C=C/C(=O)Nc1cc2c(Nc3ccc(F)c(Cl)c3)ncnc2cc1O[C@H]1CCOC1` [Afatinib], the CATDS at FER, on AKT1, in the test with ERCC2, on CDK4, at PIK3CG and at CAMK2D was 0 throughout. Besides, the CATDS on EPHA4, on GRK6, on PIK3CA, on FRK, in the test with ACOX3 and on ACAD11 was 0 in each case. Further, the CATDS in the test with HSP90AA1 and at NQO1 was 0 throughout.
